According to the supplement of paper PMC10307832:

Tests used:
Assay in all cases: relative viability (nuclei count vs DMSO), 5 days (fraction); higher = more cells survive
SGI-1776 + Phenformin = compound: CN1CCC(CNc2ccc3ncc(-c4cccc(OC(F)(F)F)c4)n3n2)CC1 [SGI-1776] + N=C(N)NC(=N)NCCc1ccccc1 [Phenformin] (partner 250 µM)
In short: (§1)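 The day after seeding in 1536-well plates, lung cancer cell lines were treated by pin tool with a single drug, or with a fixed anchor-drug dose together with five library-drug doses (not always all listed) in √10 steps. After 5 days, a combined fix-and-stain solution (final 0.05% Triton X-100, 1% formaldehyde, 1 ug/ml Hoechst) was added. Nuclei counted on 4× images gave relative viability as treated counts over vehicle counts, reported as the median of duplicate plates.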

SGI-1776 + Pemetrexed = compound: CN1CCC(CNc2ccc3ncc(-c4cccc(OC(F)(F)F)c4)n3n2)CC1 [SGI-1776] + Nc1nc2[nH]cc(CCc3ccc(C(=O)N[C@@H](CCC(=O)O)C(=O)O)cc3)c2c(=O)[nH]1 [Pemetrexed] (partner 0.2 µM)
In short: as §1

SGI-1776 + Olaparib = compound: CN1CCC(CNc2ccc3ncc(-c4cccc(OC(F)(F)F)c4)n3n2)CC1 [SGI-1776] + O=C(c1cc(Cc2n[nH]c(=O)c3ccccc23)ccc1F)N1CCN(C(=O)C2CC2)CC1 [Olaparib] (partner 8 µM)
In short: as §1

[1] = compound: C1COCCN1C2=NC(=NC3=C2OC4=C3C=CC=N4)C5=CC(=CC=C5)NC(=O)C6=CN=C(C=C6)N + O=C(c1cc(Cc2n[nH]c(=O)c3ccccc23)ccc1F)N1CCN(C(=O)C2CC2)CC1 [Olaparib] (partner 8 µM)
In short: as §1

Row | Cell Line | relative viability (SGI-1776 + Phenformin; first compound 0.08 µM) | relative viability (SGI-1776 + Phenformin; first compound 0.8 µM) | relative viability (SGI-1776 + Phenformin; first compound 2.53 µM) | relative viability (SGI-1776 + Phenformin; first compound 8 µM) | relative viability (SGI-1776 + Pemetrexed; first compound 0.08 µM) | relative viability (SGI-1776 + Pemetrexed; first compound 0.8 µM) | relative viability (SGI-1776 + Pemetrexed; first compound 2.53 µM) | relative viability (SGI-1776 + Pemetrexed; first compound 8 µM) | relative viability (SGI-1776 + Olaparib; first compound 0.08 µM) | relative viability (SGI-1776 + Olaparib; first compound 0.8 µM) | relative viability (SGI-1776 + Olaparib; first compound 2.53 µM) | relative viability (SGI-1776 + Olaparib; first compound 8 µM) | relative viability ([1]; first compound 0.02 µM) | relative viability ([1]; first compound 0.06325 µM) | relative viability ([1]; first compound 0.2 µM) | relative viability ([1]; first compound 0.6325 µM) | relative viability ([1]; first compound 2 µM)
1 | NCI-H1993 | 0.538 | 0.515 | 0.515 | 0.492 | 0.61 | 0.569 | 0.559 | 0.548 | 0.989 | 0.943 | 1.01 | 0.955 | 0.949 | 1.07 | 1.06 | 0.958 | 0.201
2 | COR-L23 | 0.488 | 0.479 | 0.444 | 0.358 | 0.212 | 0.188 | 0.2 | 0.18 | 0.345 | 0.396 | 0.377 | 0.275 | 0.391 | 0.371 | 0.317 | 0.353 | 0.271
3 | HCC-44 | 0.197 | 0.174 | 0.151 | 0.125 | 0.612 | 0.621 | 0.679 | 0.633 | 0.998 | 0.973 | 0.89 | 0.984 | 0.94 | 1.06 | 1.02 | 1.08 | 0.918
4 | LU99A | 0.816 | 0.712 | 0.915 | 0.783 | 0.176 | 0.218 | 0.178 | 0.189 | 0.304 | 0.312 | 0.305 | 0.238 | 0.264 | 0.27 | 0.226 | 0.262 | 0.222
5 | NCI-H460 | 0.502 | 0.471 | 0.477 | 0.361 | 0.0693 | 0.062 | 0.0616 | 0.0609 | 0.503 | 0.482 | 0.431 | 0.481 | 0.578 | 0.537 | 0.376 | 0.413 | 0.182
6 | NCI-H650 | 0.521 | 0.438 | 0.435 | 0.368 | 1.02 | 0.91 | 0.949 | 0.841 | 0.455 | 0.409 | 0.438 | 0.326 | 0.403 | 0.405 | 0.379 | 0.371 | 0.408
7 | NCI-H1975 | 0.426 | 0.41 | 0.403 | 0.379 | 0.29 | 0.288 | 0.289 | 0.273 | 0.877 | 0.791 | 0.73 | 0.638 | 0.772 | 0.865 | 1 | 0.86 | 0.381
8 | NCI-H1355 | 0.451 | 0.423 | 0.401 | 0.3 | 1.09 | 1.07 | 1.01 | 1.03 | 0.749 | 0.695 | 0.78 | 0.687 | 0.736 | 0.886 | 0.781 | 0.757 | 0.572
9 | NCI-H1755 | 0.617 | 0.584 | 0.576 | 0.516 | 0.465 | 0.443 | 0.425 | 0.372 | 0.913 | 0.848 | 0.798 | 0.671 | 0.875 | 0.922 | 0.92 | 0.702 | 0.594
10 | NCI-H2009 | 0.407 | 0.394 | 0.381 | 0.3 | 0.912 | 1.05 | 1.15 | 0.954 | 0.714 | 0.769 | 0.688 | 0.623 | 0.695 | 0.674 | 0.689 | 0.725 | 0.687
11 | LK-2 | 0.396 | 0.515 | 0.428 | 0.168 | 0.295 | 0.352 | 0.291 | 0.201 | 0.783 | 0.768 | 0.717 | 0.579 | 0.609 | 0.902 | 0.691 | 0.651 | 0.464
12 | HCC-78 | 0.779 | 0.775 | 0.695 | 0.592 | 0.894 | 0.875 | 0.908 | 0.939 | 0.891 | 0.91 | 0.801 | 0.95 | 0.751 | 0.896 | 0.85 | 0.842 | 0.583
13 | NCI-H3122 | 0.371 | 0.328 | 0.309 | 0.278 | 0.202 | 0.201 | 0.198 | 0.193 | 0.688 | 0.697 | 0.62 | 0.647 | 0.665 | 0.614 | 0.625 | 0.935 | 0.483
14 | HOP-62 | 0.728 | 0.616 | 0.704 | 0.623 | 0.306 | 0.363 | 0.325 | 0.31 | 0.436 | 0.63 | 0.448 | 0.59 | 0.632 | 0.5 | 0.447 | 0.7 | 0.255
15 | NCI-H661 | 0.269 | 0.271 | 0.306 | 0.246 | 0.938 | 0.89 | 0.917 | 0.889 | 0.733 | 0.754 | 0.843 | 0.846 | 0.789 | 0.832 | 0.717 | 0.876 | 0.426
